Among the data in ChEMBL document CHEMBL5291721, “A preclinical secondary pharmacology resource illuminates target-adverse drug reaction associations of marketed drugs” (Nat Commun, 2023) are AC50 values, retold here.

In assay [1] the target is T1, Muscarinic acetylcholine receptor M1 (Homo sapiens, UniProt P11229).
T1 sequence (P11229 whole entry): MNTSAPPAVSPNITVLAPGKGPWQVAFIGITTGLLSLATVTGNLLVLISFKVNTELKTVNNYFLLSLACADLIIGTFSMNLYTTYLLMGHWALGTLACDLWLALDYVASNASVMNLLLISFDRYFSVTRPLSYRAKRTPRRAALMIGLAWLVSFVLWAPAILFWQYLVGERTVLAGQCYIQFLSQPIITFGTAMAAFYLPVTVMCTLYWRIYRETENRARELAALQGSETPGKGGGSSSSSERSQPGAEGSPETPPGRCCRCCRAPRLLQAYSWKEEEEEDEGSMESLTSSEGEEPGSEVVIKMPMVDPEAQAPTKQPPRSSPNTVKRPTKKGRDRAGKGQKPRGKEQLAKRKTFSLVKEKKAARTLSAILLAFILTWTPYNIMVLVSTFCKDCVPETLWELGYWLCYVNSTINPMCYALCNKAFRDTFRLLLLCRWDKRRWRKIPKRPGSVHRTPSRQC
Type of assay: functional.

In another assay the target is D(1A) dopamine receptor (Homo sapiens, UniProt P21728). Format: functional, cell-based.
Assay [2] concerns the target Gamma-aminobutyric acid receptor subunit alpha-1 (Rattus norvegicus, UniProt P62813). Type of assay: functional.
For assay [3], the target named is Glutamate receptor ionotropic, NMDA 1 (Rattus norvegicus, UniProt P35439).
A further assay deals with Histamine H2 receptor (Homo sapiens, UniProt P25021). Format: functional, cell-based.
Assay [4] concerns the target T2, 5-hydroxytryptamine receptor 1A (Homo sapiens, UniProt P08908).
T2 sequence (P08908 whole entry): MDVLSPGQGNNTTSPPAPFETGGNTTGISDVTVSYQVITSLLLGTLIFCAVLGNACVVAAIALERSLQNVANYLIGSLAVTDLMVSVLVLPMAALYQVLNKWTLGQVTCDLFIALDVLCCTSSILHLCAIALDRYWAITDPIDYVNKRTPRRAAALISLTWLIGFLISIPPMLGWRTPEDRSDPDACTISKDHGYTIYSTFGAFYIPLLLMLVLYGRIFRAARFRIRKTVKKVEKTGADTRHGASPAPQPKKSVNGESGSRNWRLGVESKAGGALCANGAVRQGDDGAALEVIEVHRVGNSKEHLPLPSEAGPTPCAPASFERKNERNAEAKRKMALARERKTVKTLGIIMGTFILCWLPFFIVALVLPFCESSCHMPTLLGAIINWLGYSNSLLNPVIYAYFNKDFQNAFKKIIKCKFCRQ
Format: functional, cell-based.

Assay [5] addresses 5-hydroxytryptamine receptor 2B (Homo sapiens, UniProt P41595). Type of assay: functional, cell-based.
Assay [6] deals with T3, 5-hydroxytryptamine receptor 3A (Homo sapiens, UniProt P46098).
T3 sequence (P46098 whole entry): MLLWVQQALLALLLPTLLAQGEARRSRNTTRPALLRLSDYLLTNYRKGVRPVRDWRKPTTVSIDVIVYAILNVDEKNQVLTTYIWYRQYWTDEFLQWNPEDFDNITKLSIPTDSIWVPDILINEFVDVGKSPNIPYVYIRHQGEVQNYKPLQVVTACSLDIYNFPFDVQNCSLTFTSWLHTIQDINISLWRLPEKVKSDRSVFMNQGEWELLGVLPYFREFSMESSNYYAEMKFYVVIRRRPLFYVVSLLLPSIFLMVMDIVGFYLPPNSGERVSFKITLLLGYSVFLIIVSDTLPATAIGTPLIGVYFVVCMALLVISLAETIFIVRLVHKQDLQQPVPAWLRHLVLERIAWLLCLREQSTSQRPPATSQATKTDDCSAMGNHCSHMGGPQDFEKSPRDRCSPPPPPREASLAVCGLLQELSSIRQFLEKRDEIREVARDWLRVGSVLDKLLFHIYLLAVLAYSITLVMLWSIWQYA
Format: functional.

Assay [7] deals with Kappa-type opioid receptor (Homo sapiens, UniProt P41145).
Assay [8] has as its target T4, Prostaglandin G/H synthase 1 (Rattus norvegicus, UniProt Q63921).
T4 sequence (Q63921 whole entry): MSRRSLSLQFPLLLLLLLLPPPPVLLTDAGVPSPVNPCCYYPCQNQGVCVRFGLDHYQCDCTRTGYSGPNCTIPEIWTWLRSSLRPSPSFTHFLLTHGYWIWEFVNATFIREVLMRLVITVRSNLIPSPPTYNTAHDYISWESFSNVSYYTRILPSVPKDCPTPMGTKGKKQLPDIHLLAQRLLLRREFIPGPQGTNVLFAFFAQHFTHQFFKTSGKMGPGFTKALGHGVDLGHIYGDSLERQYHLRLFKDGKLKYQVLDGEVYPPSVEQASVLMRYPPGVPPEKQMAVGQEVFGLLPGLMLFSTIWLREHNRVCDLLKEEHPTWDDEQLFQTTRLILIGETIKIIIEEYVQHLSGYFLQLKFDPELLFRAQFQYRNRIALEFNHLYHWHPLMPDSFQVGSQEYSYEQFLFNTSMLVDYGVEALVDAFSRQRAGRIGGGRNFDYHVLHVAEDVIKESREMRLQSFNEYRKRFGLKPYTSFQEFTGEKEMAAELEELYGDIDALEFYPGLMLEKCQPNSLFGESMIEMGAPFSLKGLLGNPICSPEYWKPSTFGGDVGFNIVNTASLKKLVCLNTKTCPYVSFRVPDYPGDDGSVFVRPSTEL
Format: functional.

Assay [9] deals with Sodium-dependent dopamine transporter (Homo sapiens, UniProt Q01959).
Assay [10] deals with T5, Alpha-1A adrenergic receptor (Homo sapiens, UniProt P35348).
T5 sequence (P35348 whole entry): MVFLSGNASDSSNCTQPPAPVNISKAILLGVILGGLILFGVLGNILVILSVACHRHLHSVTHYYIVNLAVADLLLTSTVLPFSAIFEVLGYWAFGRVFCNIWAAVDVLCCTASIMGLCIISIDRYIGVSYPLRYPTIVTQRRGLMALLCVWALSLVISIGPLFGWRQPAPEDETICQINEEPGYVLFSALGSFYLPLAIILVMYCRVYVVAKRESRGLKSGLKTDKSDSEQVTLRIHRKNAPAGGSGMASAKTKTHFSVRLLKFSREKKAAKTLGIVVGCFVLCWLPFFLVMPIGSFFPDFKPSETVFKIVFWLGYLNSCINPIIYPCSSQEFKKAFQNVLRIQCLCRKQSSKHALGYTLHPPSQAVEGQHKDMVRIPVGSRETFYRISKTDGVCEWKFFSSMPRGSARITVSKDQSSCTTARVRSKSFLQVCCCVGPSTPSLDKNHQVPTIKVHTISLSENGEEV
Format: functional, cell-based.

The AC50 is the midpoint of the concentration-response curve, whichever way the signal moves.
Note: assay procedure not described here.

Sequence of D(1A) dopamine receptor (P21728 whole entry): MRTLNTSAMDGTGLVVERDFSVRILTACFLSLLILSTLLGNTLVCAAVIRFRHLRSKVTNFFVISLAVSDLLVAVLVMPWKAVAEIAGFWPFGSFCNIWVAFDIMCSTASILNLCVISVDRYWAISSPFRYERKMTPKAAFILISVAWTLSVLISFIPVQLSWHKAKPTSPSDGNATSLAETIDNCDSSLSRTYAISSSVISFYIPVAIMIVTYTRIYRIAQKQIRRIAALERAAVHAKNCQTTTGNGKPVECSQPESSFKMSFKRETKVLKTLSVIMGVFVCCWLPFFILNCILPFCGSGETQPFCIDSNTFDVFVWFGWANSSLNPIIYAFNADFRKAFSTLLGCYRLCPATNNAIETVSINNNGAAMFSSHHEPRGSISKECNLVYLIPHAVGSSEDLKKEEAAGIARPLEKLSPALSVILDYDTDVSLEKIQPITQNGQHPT
Sequence of Kappa-type opioid receptor (P41145 whole entry): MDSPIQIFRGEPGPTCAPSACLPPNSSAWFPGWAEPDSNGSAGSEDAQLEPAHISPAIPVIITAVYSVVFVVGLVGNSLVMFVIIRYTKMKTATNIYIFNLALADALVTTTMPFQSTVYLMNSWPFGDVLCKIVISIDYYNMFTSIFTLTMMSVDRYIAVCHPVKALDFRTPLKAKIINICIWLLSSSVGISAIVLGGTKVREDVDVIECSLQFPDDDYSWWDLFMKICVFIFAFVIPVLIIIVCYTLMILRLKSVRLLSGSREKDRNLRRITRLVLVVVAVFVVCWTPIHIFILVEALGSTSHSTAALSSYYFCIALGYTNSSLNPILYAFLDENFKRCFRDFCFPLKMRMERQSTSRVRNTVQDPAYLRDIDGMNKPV
Sequence of Gamma-aminobutyric acid receptor subunit alpha-1 (P62813 whole entry): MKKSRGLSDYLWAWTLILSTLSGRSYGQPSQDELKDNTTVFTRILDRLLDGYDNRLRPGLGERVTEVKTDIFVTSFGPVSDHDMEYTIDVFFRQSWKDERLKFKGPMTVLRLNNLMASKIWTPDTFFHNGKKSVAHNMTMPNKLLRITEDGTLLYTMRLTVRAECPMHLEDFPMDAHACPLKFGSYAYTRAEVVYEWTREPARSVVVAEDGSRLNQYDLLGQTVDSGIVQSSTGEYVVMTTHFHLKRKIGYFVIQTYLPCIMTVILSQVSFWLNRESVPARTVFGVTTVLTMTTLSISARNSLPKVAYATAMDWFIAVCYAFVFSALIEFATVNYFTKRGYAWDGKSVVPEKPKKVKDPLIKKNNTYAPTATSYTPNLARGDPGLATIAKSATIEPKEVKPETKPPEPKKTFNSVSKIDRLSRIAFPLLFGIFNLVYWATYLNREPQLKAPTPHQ
Sequence of Sodium-dependent dopamine transporter (Q01959 whole entry): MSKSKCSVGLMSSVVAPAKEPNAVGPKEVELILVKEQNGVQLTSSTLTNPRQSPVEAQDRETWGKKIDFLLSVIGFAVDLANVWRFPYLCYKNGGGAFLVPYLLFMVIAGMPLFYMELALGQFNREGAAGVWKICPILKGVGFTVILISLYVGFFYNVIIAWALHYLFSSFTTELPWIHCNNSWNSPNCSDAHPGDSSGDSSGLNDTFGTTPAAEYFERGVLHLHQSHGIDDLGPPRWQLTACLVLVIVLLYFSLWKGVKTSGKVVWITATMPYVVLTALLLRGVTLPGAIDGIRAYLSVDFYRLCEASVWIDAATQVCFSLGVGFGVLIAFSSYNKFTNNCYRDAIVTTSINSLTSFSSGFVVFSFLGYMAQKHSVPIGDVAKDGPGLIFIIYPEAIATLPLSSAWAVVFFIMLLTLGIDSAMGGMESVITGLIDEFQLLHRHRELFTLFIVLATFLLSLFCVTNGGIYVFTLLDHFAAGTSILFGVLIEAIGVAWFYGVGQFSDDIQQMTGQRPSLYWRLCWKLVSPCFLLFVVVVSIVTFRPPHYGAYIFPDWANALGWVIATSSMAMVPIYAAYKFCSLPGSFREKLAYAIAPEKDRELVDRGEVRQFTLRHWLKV
Sequence of 5-hydroxytryptamine receptor 2B (P41595 whole entry): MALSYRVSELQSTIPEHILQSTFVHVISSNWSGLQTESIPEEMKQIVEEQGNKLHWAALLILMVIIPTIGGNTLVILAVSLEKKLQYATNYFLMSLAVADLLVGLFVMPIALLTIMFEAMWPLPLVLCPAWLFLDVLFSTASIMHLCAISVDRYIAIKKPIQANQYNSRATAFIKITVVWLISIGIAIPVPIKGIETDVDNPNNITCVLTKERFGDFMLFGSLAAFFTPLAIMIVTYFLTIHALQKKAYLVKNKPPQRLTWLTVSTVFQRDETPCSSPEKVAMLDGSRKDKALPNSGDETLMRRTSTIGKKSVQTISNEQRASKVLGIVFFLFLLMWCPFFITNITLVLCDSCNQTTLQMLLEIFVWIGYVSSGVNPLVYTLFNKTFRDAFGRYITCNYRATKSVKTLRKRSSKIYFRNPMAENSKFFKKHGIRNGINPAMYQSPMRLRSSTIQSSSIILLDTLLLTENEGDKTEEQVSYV
Sequence of Histamine H2 receptor (P25021 whole entry): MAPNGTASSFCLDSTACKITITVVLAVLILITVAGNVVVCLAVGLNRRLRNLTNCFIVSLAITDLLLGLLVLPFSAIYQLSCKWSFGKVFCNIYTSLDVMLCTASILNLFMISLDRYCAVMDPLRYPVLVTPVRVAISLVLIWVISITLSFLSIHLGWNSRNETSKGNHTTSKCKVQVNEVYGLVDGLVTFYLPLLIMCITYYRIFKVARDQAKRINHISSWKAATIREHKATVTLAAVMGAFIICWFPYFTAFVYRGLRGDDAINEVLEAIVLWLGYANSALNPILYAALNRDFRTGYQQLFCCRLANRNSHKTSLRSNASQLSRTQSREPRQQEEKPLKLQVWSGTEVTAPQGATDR

For `CC(=O)N[C@H]1[C@H]([C@H](O)[C@H](O)CO)OC(C(=O)O)=C[C@@H]1N=C(N)N` [ZANAMIVIR], the AC50 in assay [1] was more than 30 µM; at D(1A) dopamine receptor, more than 30 µM; in [2], more than 10 µM; in [3], more than 10 µM; on Histamine H2 receptor, more than 30 µM; in assay [4], more than 30 µM. The half-maximal activity concentration (AC50) is more than 30 µM in assay [5]; more than 30 µM in assay [6]; more than 10 µM in [7]; more than 30 µM in assay [8]; more than 30 µM in assay [9].

As for `CCCC(=O)N1CCCN(c2nc(N)c3cc(OC)c(OC)cc3n2)CC1` [BUNAZOSIN], the AC50 (in [1]; at D(1A) dopamine receptor; in assay [2]; in assay [3]; on Histamine H2 receptor; in assay [4]) was more than 30 µM each time. The AC50 in [5], in [6], in assay [7], in assay [8] and in [9] was more than 30 µM in each case.

Consider `NS(=O)(=O)c1cc2c(cc1Cl)NC(CC1CCCC1)NS2(=O)=O` (centres undefined) [CYCLOPENTHIAZIDE], for which the AC50 (in assay [1]; at D(1A) dopamine receptor; in assay [2]; in assay [3]; on Histamine H2 receptor; in [4]) was more than 30 µM in each case. The AC50 in assay [5], in assay [6], in assay [7] and in [10] was more than 30 µM in each case.

For `COCC1=C(C(=O)OC(C)OC(=O)OC(C)C)N2C(=O)[C@@H](NC(=O)/C(=N\OC)c3csc(N)n3)[C@H]2SC1` (some centres undefined) [CEFPODOXIME PROXETIL], the AC50 (in [1]; at D(1A) dopamine receptor; in [2]; in [3]; on Histamine H2 receptor; in assay [4]) was more than 30 µM in each case. Further, the AC50 in assay [5], in assay [6], in [7] and in assay [10] was more than 30 µM throughout.

With `O=P(O)(O)C(O)(Cc1cccnc1)P(=O)(O)O` [RISEDRONIC ACID], the AC50 on D(1A) dopamine receptor was more than 30 µM; in [2], more than 30 µM; in [3], more than 30 µM; on Histamine H2 receptor, more than 10 µM; in [4], more than 30 µM; in assay [5], more than 30 µM. Further, the concentration at half-maximal activity (AC50) in [6], in assay [7], in assay [8], in assay [9] and in [10] was more than 30 µM throughout.

Take `CN(C)CCCN1c2ccccc2Sc2ccccc21` [PROMAZINE]: the AC50 on D(1A) dopamine receptor is more than 10 µM; in [2], more than 10 µM; in [3] it was more than 10 µM; on Histamine H2 receptor it was more than 10 µM; in assay [4] it was more than 10 µM; in [5] it was 5.7 µM. In addition, the AC50 is more than 10 µM in assay [6]; 1.99 µM in assay [7]; more than 30 µM in assay [8]; more than 10 µM in assay [9]; 0.141 µM in assay [10].

Consider `CN(CCCN1c2ccccc2CCc2ccccc21)CC(=O)c1ccc(Cl)cc1` [LOFEPRAMINE], for which the AC50 on D(1A) dopamine receptor is more than 30 µM; in assay [2] it was more than 30 µM; in [3] it was 25 µM; on Histamine H2 receptor it was more than 30 µM; in assay [4], more than 30 µM; in assay [5] it was more than 30 µM. Moreover, the AC50 in assay [6] is more than 30 µM; in assay [7], 4.8 µM; in assay [8], 1.3 µM; in [9], 21 µM; in assay [10] it was 4.4 µM.

With `O=C1CCC(N2C(=O)c3ccccc3C2=O)C(=O)N1` (centres undefined) [THALIDOMIDE], the AC50 (at D(1A) dopamine receptor; in assay [2]; in assay [3]; at Histamine H2 receptor; in assay [4]; in assay [5]) was more than 10 µM in each case. Moreover, the AC50 in [6] was more than 30 µM; in assay [7] it was more than 10 µM; in assay [8] it was more than 30 µM; in [9] it was more than 10 µM; in [10], more than 30 µM.

As to `CN(C)[C@@H]1C(O)=C(C(N)=O)C(=O)[C@@]2(O)C(O)=C3C(=O)c4c(O)ccc(Cl)c4[C@@H](O)[C@H]3C[C@@H]12` [DEMECLOCYCLINE], the AC50 (in [1]; at D(1A) dopamine receptor; in [2]; in assay [3]; on Histamine H2 receptor; in assay [4]) was more than 10 µM in each case. The AC50 is more than 10 µM in [5]; more than 30 µM in assay [6]; more than 10 µM in assay [7]; more than 10 µM in assay [8]; more than 10 µM in assay [9].

In the case of `CC(=O)O[C@]1(C(C)=O)CC[C@H]2[C@@H]3C[C@H](C)C4=CC(=O)CC[C@]4(C)[C@H]3CC[C@@]21C` [MEDROXYPROGESTERONE ACETATE], the AC50 in [8] and in [9] was more than 30 µM throughout.

For `C[N+](C)(C)CCOC(N)=O` [CARBAMOYLCHOLINE], the AC50 on D(1A) dopamine receptor was more than 30 µM; in assay [2], more than 10 µM; in assay [3] it was more than 10 µM; on Histamine H2 receptor it was more than 30 µM; in assay [4] it was 5.95 µM; in [5], more than 30 µM. The AC50 in assay [6] is more than 10 µM; in [7] it was more than 10 µM; in assay [8], more than 10 µM; in assay [9], more than 10 µM; in [10], more than 30 µM.

For the molecule `Nc1ccc(/N=N/c2ccccc2)c(N)n1` [PHENAZOPYRIDINE], the AC50 was 4.1 µM in assay [1]; more than 30 µM on D(1A) dopamine receptor; more than 30 µM in [2]; more than 30 µM in assay [3]; more than 30 µM at Histamine H2 receptor; 24 µM in [5]. Further, the results for the AC50 in assay [6], in [7] and in assay [10] were 3.3 µM, 3.3 µM and more than 30 µM, respectively.
